Experimental data taken from US8088433B2, “Mononuclearly filled microcapsules” (Symrise AG, priority 2001, dated 2012).
Each block holds one compound with its values, some of them ahead of it.

How the values were obtained:
[1] = flavor retention of Model-flavor components in alginate capsules, drying with silicon dioxide vs fluidized bed drying; type: physicochemical; details: for Convective Drying: % Retention: 200 g wet capsules dried in fluidized bed dryer at 30° C., 100 m^3 per hour air flow, shell water content 62%; for Drying "water adsorbing" Substances: % Retention: 200 g wet capsules mixed 10 minutes with 100 g silicon dioxide, shell water content 45%
[2] = cited from earlier work; for Log Ko/w: components of the Model flavor, Table 9; for logKo/w / logPo/w: n-octanol/water distribution coefficient; for logKo/w: log10[co/cw], grouping of flavor substances by difficulty of encapsulation
[3] = flavor retention of Model-flavor components in alginate capsules, short continuous vs long batch gelling (ether extraction, HRGC/MS); type: physicochemical; details: wet alginate capsules, 5% calcium chloride, relative to Model-flavor solution theoretically encapsulated; for Flavor Retention, Short Gel Time (continuous): dwell time 1 minute; for Flavor Retention, Long Gel Time (Batch): dwell time 2 hours
Description: 50 g sodium alginate were dissolved in 195 g demineralized water using a high speed kneading mixer of the type Ultra-Turrax. 250 g Model-flavor were dissolved in 750 g neutral oil. The Model flavor was comprised of flavor components, which cover a large spectrum of water/oil solubility as indicated by logKo/w-values, see the following Table 9.
The two solutions (alginate, flavor) were conveyed to a vibrating two-stream nozzle head with an inner diameter of 150 μm and an outer diameter of 500 μm. The flow rates were adjusted for the flavor solution to 500 g per hour and for the shell solution to 1000 g per hour, the vibration frequency was adjusted to 200 Hz.
For the preferred short continuous gelling process the formed discrete droplets fell into a pipe reactor, which was filled with 5% calcium chloride, and were so transported, that the dwell time was 1 minute.
The results of the 1 minute capsule production (corresponding to 8.3 g encapsulated flavor solution) were then dissolved in 200 ml 1% aqueous […] solution. The mixture was then extracted for 4 hours in a perforator with diethyl ether. The diethyl ether extract was analyzed using HRGC/MS. The results were evaluated based on the surface of the GC/MS peaks for the components per gram of encapsulated aroma solution.
For the batch gelled process the formed discrete droplets fell into a 5% calcium chloride containing reactor with a dwell time of 2 hours. […] The same analytical protocol was carried out as for the short gel time process.
10 g Model-flavor solution were dispersed in 200 ml 1% aqueous sodium citrate solution. The mixture was extracted in a perforator for 4 hours with diethyl ether and evaluated as described above.
The flavor retention for the respective flavor components during the short continuous gelling process and the long gel batch process were calculated on the basis of the amount of the Model-flavor solution which originally flowed through the nozzle system and theoretically was encapsulated, the results are presented in Table 10.

Convective Drying: % Retention [1]: 4%
Drying "water adsorbing" Substances: % Retention [1]: 50%
Flavor Retention, Short Gel Time (continuous) [3]: 61%
Flavor Retention, Long Gel Time (Batch) [3]: 0%
SMILES: CCOC(=O)CC [ethyl propionate]
Log Ko/w [2]: 1.24
logKo/w [2]: 1.24

SMILES: CCCCCCC1CCC(=O)O1 (stereo not shown) [gamma-decalactone]
logKo/w [2]: 2.42

Convective Drying: % Retention [1]: 60%
Drying "water adsorbing" Substances: % Retention [1]: 95%
Flavor Retention, Short Gel Time (continuous) [3]: 80%
Flavor Retention, Long Gel Time (Batch) [3]: 18.5%
SMILES: CC(=O)OCCC(C)C [isoamyl acetate]
Log Ko/w [2]: 2.12
logPo/w [2]: 2.12

SMILES: CCCC(=O)OCC [ethyl butyrate]
logKo/w [2]: 1.77
logPo/w [2]: 1.73

SMILES: CCOC(=O)C(C)O (stereo not shown) [ethyl lactate]
logKo/w [2]: 0.88

SMILES: CCOC(C)=O [ethylacetate]
logKo/w [2]: 0.75

SMILES: C=CC(C)(O)CCC=C(C)C (stereo not shown) [linalool]
logKo/w [2]: 3.28

SMILES: CC(=O)C(C)=O [diacetyl (butanedione), butanedione]
logKo/w [2]: 1.33

SMILES: CCCCCC(=O)OCC [ethyl-caproate]
logKo/w [2]: 2.83

SMILES: CC=O [Acetaldehyde]
logPo/w [2]: −0.16

SMILES: C=C(C)C1CC=C(C)C(=O)C1 (stereo not shown) [carvone]
logKo/w [2]: 2.23

Convective Drying: % Retention [1]: 65%
Drying "water adsorbing" Substances: % Retention [1]: 0%
Flavor Retention, Short Gel Time (continuous) [3]: 90%
Flavor Retention, Long Gel Time (Batch) [3]: 90%
SMILES: CCCCCCCC(=O)OCC [Ethylcaprylate]
Log Ko/w [2]: 3.9

SMILES: C=C1CCC2CC1C2(C)C (stereo not drawn) [beta-pinene]
logKo/w [2]: 4.37

SMILES: O=Cc1ccccc1 [benzaldehyde]
Convective Drying: % Retention [1]: 52%
Drying "water adsorbing" Substances: % Retention [1]: 80%
Flavor Retention, Short Gel Time (continuous) [3]: 82%
Flavor Retention, Long Gel Time (Batch) [3]: 11%

SMILES: CC(C)CCO [isoamyl alcohol]
logKo/w [2]: 1.28
logPo/w [2]: 1.22
